{"source": "patent US9234025B2", "about": "“Extracellular allosteric inhibitor binding domain from a tyrosine kinase receptor” (SANOFI, priority 2009, dated 2016)", "key": {"[1]": {"biological_target": "T1, FGFR2^∂23-Y328D (Homo sapiens, UniProt P21802, Y328D)", "assay": "ITC, FGFR2 Y328D mutant", "type": "binding", "design": "FGFR2^∂23 (consisting of domain D2 and 3); made in house", "procedure": "All calorimetric experiments were performed at 30° C. with a VP-ITC titration calorimeter (MicroCal Inc., Northampton, Mass.) as previously described^45. Titrations involved the addition of 10 μL aliquots of 1.25 mM SSR via a rotating stirrer-syringe to the solution cell containing 1.407 mL of the 10-20 μM interacting protein (i.e. FGFR2^∂123, FGFR2^∂23 and its described mutants and subdomains, FGFR3^∂123, FGF1, FGF2 and Follistatin (as negative control) at 4 min intervals. A constant stirring speed of 300 rpm was maintained and data were fitted to the standard noninteracting one site model supplied by MicroCal, with n fixed as 1.0. All measurements were performed in 10 mM HEPES pH7.2, 150 mM NaCl, and proteins were purified as previously described (Pellegrini et al., 2000). Mutagenesis was performed using the ‘site directed mutagenesis kit’ (Stratagene).\nWe next explored whether SSR bound to amino acid residues that form part of the orthosteric site in D3 or to an alternative allosteric site. Initially, we used the molecular docking algorithms of the software packages MOLEGRO, Autodock and YASARA and available crystallographic data. […] We also analyzed the FTIR spectrum of the aforementioned mutated FGFR2 fragments."}, "[2]": {"biological_target": "T1, FGFR2^∂23-Y328D", "assay": "FGF2-induced ERK1/2 phosphorylation in HEK293 cells, FGFR2 Y328D", "type": "cell-based", "design": "stably transfected HEK293 cells with full length FGFR2-WT or -Y328D; expressed in transfected cells; host or cells: HEK293", "conditions": "stable HEK293 FGFR2 Y328D cells; FGF2 0.5 ng/ml 5 min; average±sem, three experiments; read-out: IC50 value, inhibition of FGF2 induced ERK1/2 phosphorylation", "procedure": "HEK293 cells were either transiently of stably transfected (using FuGENE 6, Roche) with hFGFR2IIIca or hFGFR2IIIca-Y328D cloned in pcDNA3 (Invitrogen). Stably transfected cells were grown in G418 (400 μg/ml) containing medium. Before stimulation, the cells were starved overnight in DMEM (0% serum), and pre-incubated with […] at the required concentration. The cells were subsequently stimulated with FGF2 (concentration between 0.5-10 ng/ml) for 5 min at 37° C. with or without SSR or SU5402 at 1 μM. After washing with ice-cold phosphate-buffered saline containing phosphatase inhibitors (Roche), cells were lysed in RIPA buffer (Tris 30 mM HCl pH 7.5, 150 mM NaCl, 1 mM EDTA, 1% triton-X, 0.5% w/v deoxycholate, containing phophatase and protease inhibitors as described by the manufacturer (Roche)). Cell lysates were centrifuged at 12,000 g for 10 min, and the supernatants were collected. Proteins were separated on Novex polyacrylamide gels (Invitrogen, Carlsbad, Calif.) and subsequently transferred onto Hybond ECL nitrocellulose membranes (Amersham Pharmacia). Following incubation with 5% non-fat milk powder in PBS, the membranes were incubated overnight at 4° C. with the following antibodies: phospho-ERK1/2 (CST:9101), phospho-FRS2 (CST:3861), phospho-PLCγ (CST:2821) and FGFR2 (F0300, Sigma)."}}}
{"smiles": "COc1c(C)c(C(=O)c2ccc(N)c(C(=O)[O-])c2)n2ccccc12.[Na+]", "note": "[SSR]", "values": [{"measurement": "binding to FGFR2^∂23-Y328D", "setting": "[1]", "value": "failed to bind"}, {"measurement": "IC50", "setting": "[2]", "value": "121 ± 30", "unit": "nM"}]}
